# From PubChem BioAssay AID2060897 (Molecular Pharmacology Branch, DTP, NCI, 2025)
# System: 966289-007-R4-J1-PDC complex spheroid viability
# Experiment: Anticancer human tumor 966289-007-R4-J1-PDC patient-derived pancreatic adenocarcinoma cell line growth inhibition [RAS]
# Settings: for IC50: curve of first compound; for viability, T/C: stronger effect = lower value
# Source text: RAS pathway inhibitors in Combinations in Complex Spheroids
# A high-throughput screen of multi-cell type tumor spheroids was designed to identify active combinations of RAS pathway inhibitors and targeted small molecules. Complex spheroids include a stromal component modeled by human endothelial cells (HUVEC) and fibroblasts modeled by human mesenchymal stem cells (MSCs). The concentration ranges selected for each drug and investigational agent were based upon clinically achievable concentrations if the clinical Cmax of the agent was known.
# Compounds. The drugs and investigational agents: abemaciclib (NSC768073), cobimetinib (NSC768068), divarasib (GDC6063, NSC841802), docetaxel (NSC628503), GDC-1971 (RLY-1971, NSC841576), gemcitabine (NSC613327), inavolisib (NSC800729), ipatasertib (NSC767898), KB-0742 (NSC834161), MRTX-1133 (NSC836407), osimertinib (NSC779217), RMC-4630 (NSC839698), RMC-6236 (NSC851965), RMC-6291 (NSC852671), Ro-3306 (NSC812927), sapanisertib (NSC764658), SN-38 (NSC673596), staurosporine (NSC755774), SY5609 (NSC837396), and tovorafenib (DAY101, NSC766906), were obtained from the National Cancer Institute (NCI) Developmental Therapeutics Program Chemical Repository. The FDA-approved anticancer drug set is available from the NCI Developmental Therapeutics Program. […] The stock solutions were prepared in dimethyl sulfoxide (DMSO, Sigma-Aldrich, St. Louis, MO, cat. D2650) at 800-fold the tested concentration and stored at -70 degrees C prior to their use. All drugs and investigational agents were tested over a range starting from a high concentration at or near the clinical Cmax and decreasing in half-log increments. If the clinical Cmax for an agent had not been determined, the highest concentration tested was 10 microM.
# Cell Culture. All cells were maintained in an incubator at 37 degrees C and 5% CO2 with 95% humidity. The PDC lines were cultured according to standard operating procedures established by the NCI PDMR. All PDCs were thawed and cultured in Matrigel-coated flasks prepared with a working solution of 1X Ham's F-12 nutrient mix, without supplementation (Invitrogen, Waltham, MA, cat. 11765054), 100 U/mL penicillin-streptomycin (Invitrogen, cat. 15140122), and 2.5% Matrigel (Corning Inc., Corning, NY, cat. 354248) for the first three passages. The 362531-283-R-J2-PDC and 782815-120-R-J1-PDC lines were cultured in 6C/Colon 1B media, which includes advanced DMEM/F-12 (Thermo Fisher Scientific, cat. 12634028), 10 mM HEPES (Thermo Fisher Scientific, cat. 15630080), 1X GlutaMAX supplement (Thermo Fisher Scientific, cat. 35050061), 0.1 mg/mL primocin (InvivoGen, San Diego, CA, cat. ant-pm-2), 10% defined fetal bovine serum, heat inactivated (HyClone Laboratories Inc., Logan, UT, cat. SH30070.03HI), 50% L-WRN conditioned media (ATCC, cat. CRL-3276), 1.25 mM N-Acetyl-L-cysteine (Sigma-Aldrich, cat. A9165), 10 mM nicotinamide (Sigma-Aldrich, cat. N0636), 1X B-27 supplement (Thermo Fisher Scientific, cat. 17504044), 1X N-2 supplement (Thermo Fisher Scientific, cat. 17502048), 50 ng/mL human EGF (Thermo Fisher Scientific, cat. PHG0311), and 10 microM Y-27632 dihydrochloride (Tocris Bioscience, cat. 1254). The K12877-001-R-J1-PDC line was cultured in 6I media, which includes all 6C/Colon 1B media plus 10 ng/mL human FGF-10 (PeproTech, cat. 100-26), 1 ng/mL human FGF-2 (PeproTech, cat. 100-18B), 1 µM prostaglandin E2 (Tocris Bioscience, cat. 2296), […] hydrocortisone (Sigma-Aldrich, cat. H4001), and […] bovine insulin (Sigma-Aldrich, cat. I6634). The K86415-001-R-J1-PDC line was cultured in 6D media, which includes all 6C/Colon 1B media components minus the L-WRN conditioned media. The 485176-168-R4-J1-PDC was cultured in PANC media, which includes all 6C/Colon 1B media plus 100 ng/mL human FGF-10 (PeproTech, cat. 100-26), 500 nM SB-431542 (Selleckchem, cat. S1067), and 10 nM gastrin (Tocris Bioscience, cat. 3006). […]
# 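Also: spheroids exposed to agents for one week before readout.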
# 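For viability, T/C in this document: percent viability relative to DMSO vehicle control wells as 100%.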
structure (smiles),measurement,setting,value
CCN1CCN(Cc2ccc(Nc3ncc(F)c(-c4cc(F)c5nc(C)n(C(C)C)c5c4)n3)nc2)CC1 + C#Cc1c(F)ccc2cc(O)cc(-c3ncc4c(N5CC6CCC(C5)N6)nc(OCC56CCCN5CC(F)C6)nc4c3F)c12,IC50,second compound 0.0316 µM,> 1000 nM
same,IC50,second compound 0.1 µM,> 1000 nM
same,IC50,second compound 0.316 µM,> 1000 nM
same,IC50,second compound 1 µM,> 1000 nM
same,IC50,second compound 3.16 µM,> 1000 nM
same,IC50,second compound 10 µM,> 1000 nM
same,"viability, T/C","second compound 0.0316 µM, first compound 0.00316 µM",121%
same,"viability, T/C","second compound 0.0316 µM, first compound 0.01 µM",102%
same,"viability, T/C","second compound 0.0316 µM, first compound 0.0316 µM",107%
same,"viability, T/C","second compound 0.0316 µM, first compound 0.1 µM",92.8%
same,"viability, T/C","second compound 0.0316 µM, first compound 0.316 µM",92.1%
same,"viability, T/C","second compound 0.0316 µM, first compound 1 µM",71.8%
same,"viability, T/C","second compound 0.1 µM, first compound 0.00316 µM",113%
same,"viability, T/C","second compound 0.1 µM, first compound 0.01 µM",108%
same,"viability, T/C","second compound 0.1 µM, first compound 0.0316 µM",102%
same,"viability, T/C","second compound 0.1 µM, first compound 0.1 µM",82.7%
same,"viability, T/C","second compound 0.1 µM, first compound 0.316 µM",92.8%
same,"viability, T/C","second compound 0.1 µM, first compound 1 µM",71.1%
same,"viability, T/C","second compound 0.316 µM, first compound 0.00316 µM",114%
same,"viability, T/C","second compound 0.316 µM, first compound 0.01 µM",112%
same,"viability, T/C","second compound 0.316 µM, first compound 0.0316 µM",100%
same,"viability, T/C","second compound 0.316 µM, first compound 0.1 µM",95.9%
same,"viability, T/C","second compound 0.316 µM, first compound 0.316 µM",84.6%
same,"viability, T/C","second compound 0.316 µM, first compound 1 µM",69.9%
same,"viability, T/C","second compound 1 µM, first compound 0.00316 µM",104%
same,"viability, T/C","second compound 1 µM, first compound 0.01 µM",103%
same,"viability, T/C","second compound 1 µM, first compound 0.0316 µM",116%
same,"viability, T/C","second compound 1 µM, first compound 0.1 µM",103%
same,"viability, T/C","second compound 1 µM, first compound 0.316 µM",79.4%
same,"viability, T/C","second compound 1 µM, first compound 1 µM",81.7%
same,"viability, T/C","second compound 3.16 µM, first compound 0.00316 µM",108%
same,"viability, T/C","second compound 3.16 µM, first compound 0.01 µM",109%
same,"viability, T/C","second compound 3.16 µM, first compound 0.0316 µM",113%
same,"viability, T/C","second compound 3.16 µM, first compound 0.1 µM",93.3%
same,"viability, T/C","second compound 3.16 µM, first compound 0.316 µM",88.8%
same,"viability, T/C","second compound 3.16 µM, first compound 1 µM",77%
same,"viability, T/C","second compound 10 µM, first compound 0.00316 µM",108%
same,"viability, T/C","second compound 10 µM, first compound 0.01 µM",90.3%
same,"viability, T/C","second compound 10 µM, first compound 0.0316 µM",121%
same,"viability, T/C","second compound 10 µM, first compound 0.1 µM",89.2%
same,"viability, T/C","second compound 10 µM, first compound 0.316 µM",93.4%
same,"viability, T/C","second compound 10 µM, first compound 1 µM",66%
